Consider 3 compounds from patent US5677281A, “Use of peptide derivatives for the preparation of medicaments inhibiting endopeptidases 24.15 and 24.16” (Commissariat a l'Energie Atomique, priority 1992, dated 1997).

Assay [1] concerns the target endopeptidase 24.15 (Homo sapiens, UniProt P52888). To be noted: cited from earlier work.
Assay [2] has as its target endopeptidase 24.16 (Homo sapiens, UniProt Q9BYT8). To be noted: Dauch et al, cited from earlier work.
Assay [3] concerns the target T1, endopeptidase 24.15 (Rattus norvegicus, UniProt P24155). Description: Inhibition of endopeptidase 24.15, neurotensin as substrate, HPLC (Example 11). In kind it is biochemical. The settings on record: 37° C. As for the experimental part:
This example uses the same operating procedure as in example 10, but using neurotensin as the endopeptidase 24.15 substrate.
(§1) After incubating for 42 min, acidification and analysis takes place of the liquid phase by HPLC in reverse phase using linear gradients of the trifluoroacetic acid, triethyl amine and acetonitrile system, as in example 3.

For assay [4], the system named is endopeptidase 24.11. Nature of the assay: Effect on endopeptidase 24.11, hydrolysis of neurotensin (Example 15). In kind it is biochemical. As for the experimental part: The hydrolysis of 2 nM of neurotensin is followed by 9 μg of endopeptidase 24.11 under the conditions described in example 3.
In assay [5] the target is T2, endopeptidase 24.16 (Rattus norvegicus, UniProt P42676). Nature of the assay: Inhibition of endopeptidase 24.16, fluorimetry with substrate Mcc-Pro-Leu-Gly-Pro-DLys-Dnp (Example 8). In kind it is biochemical. To be noted: 1 h, 37° C., pH 7.5, read-out: inhibition constant Ki. As for the experimental part: After incubating for 1 h, the solutions are analyzed by fluorimetry, as described by Dauch et al, Biochem. J., 280, pp.421-426, 1991a.
T2 sequence (P42676 38-704): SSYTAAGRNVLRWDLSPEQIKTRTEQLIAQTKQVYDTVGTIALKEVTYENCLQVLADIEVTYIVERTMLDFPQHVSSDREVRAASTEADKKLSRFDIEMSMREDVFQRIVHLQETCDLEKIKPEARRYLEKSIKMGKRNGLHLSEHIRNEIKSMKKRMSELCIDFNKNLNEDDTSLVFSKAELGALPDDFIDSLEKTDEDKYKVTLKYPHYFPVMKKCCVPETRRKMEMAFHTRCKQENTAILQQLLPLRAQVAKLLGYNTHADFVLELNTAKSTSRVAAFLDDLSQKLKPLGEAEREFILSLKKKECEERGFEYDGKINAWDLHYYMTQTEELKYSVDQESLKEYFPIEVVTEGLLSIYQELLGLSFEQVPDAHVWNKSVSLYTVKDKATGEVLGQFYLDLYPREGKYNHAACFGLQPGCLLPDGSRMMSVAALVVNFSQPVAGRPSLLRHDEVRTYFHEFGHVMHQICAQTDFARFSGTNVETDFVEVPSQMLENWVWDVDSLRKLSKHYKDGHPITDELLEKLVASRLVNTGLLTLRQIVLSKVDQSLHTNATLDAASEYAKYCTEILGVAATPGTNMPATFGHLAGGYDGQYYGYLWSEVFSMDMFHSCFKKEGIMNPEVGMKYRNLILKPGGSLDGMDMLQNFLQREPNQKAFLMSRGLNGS

The target in assay [6] is T3, carboxypeptidase A (Bos taurus, UniProt P00730).
T3 sequence (P00730 111-419): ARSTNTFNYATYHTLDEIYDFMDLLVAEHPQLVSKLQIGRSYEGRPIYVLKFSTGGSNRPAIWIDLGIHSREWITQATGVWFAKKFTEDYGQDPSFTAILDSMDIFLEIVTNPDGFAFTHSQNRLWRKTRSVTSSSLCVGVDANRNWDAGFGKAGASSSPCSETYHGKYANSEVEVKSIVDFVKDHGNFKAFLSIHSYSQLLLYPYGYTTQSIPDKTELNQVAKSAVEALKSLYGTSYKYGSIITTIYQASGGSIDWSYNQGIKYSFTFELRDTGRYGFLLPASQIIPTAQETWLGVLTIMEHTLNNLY
Description: Effect on carboxypeptidase A, substrate Hippuryl-Phe, HPLC (Example 12). To be noted: 1 μmole/l of inhibitor, 15 min, 37° C. Type of assay: biochemical. As for the experimental part: After 15 min incubation, the solution is analyzed by HPLC.

Assay [7] concerns leucine aminopeptidase. Nature of the assay: Effect on leucine aminopeptidase, substrate Leu-7AMC, HPLC (Example 13). Type of assay: biochemical. To be noted: 1 μmole/l of inhibitor, 15 min, 37° C. As for the experimental part:
After incubating for 15 min, the reaction medium is analyzed by HPLC.

The target in assay [8] is T2, endopeptidase 24.16. Nature of the assay: Inhibition of endopeptidase 24.16, neurotensin as substrate, HPLC (Example 9). In kind it is biochemical. As for the experimental part: (§2) After incubation, it is interrupted by acidification and the solution analyzed by high performance liquid chromatography (HPLC) using an elution system constituted by a linear gradient of 42 min of 0.1% trifluoroacetic acid and 0.05% triethyl amine in acetonitrile, ranging between 9/1 and 3/1, as described by Checler et al, Biochimie 70, pp.75-82, 1988.
The results obtained are given in FIGS. 2 to 7, which show chromatograms obtained by measuring the optical density at 230 nm as a function of time (min).

Assay [9] has as its target T2, endopeptidase 24.16. Description: Inhibition of endopeptidase 24.16, neurotensin, Tris-HCl 25 mM pH 7, 25° C. (Example 16). In kind it is biochemical. The settings on record: read-out: Endopeptidases 24.16 Ki. As for the experimental part: as §2
As in example 9, this example studies the inhibiting effect of the compounds of examples 1 to 7 on endopeptidase 24.16 using neurotensin as the substrate and operating in the same way, except that use is made of a Tris-HCl, 25 mM, pH 7 buffer and a temperature of 25° C.

For assay [10], the target named is T1, endopeptidase 24.15. Nature of the assay: Inhibition of endopeptidase 24.15, neurotensin, Tris-HCl 25 mM pH 7, 25° C. (Example 17). In kind it is biochemical. The settings on record: read-out: Endopeptidases 24.15 Ki. As for the experimental part: as §1
As in example 11, this example studies the inhibiting effect of the compounds of examples 1 to 7 on endopeptidase 24.15 using neurotensin as the substrate and working under the same conditions, except that use is made of a Tris-HCl 25 mM, pH 7 buffer and a temperature of 25° C.

Assay [11] addresses T1, endopeptidase 24.15. Nature of the assay: Inhibition of endopeptidase 24.15, substrate Bz-Gly-Ala-Ala-Phe-pAB, HPLC (Example 10). Type of assay: biochemical. The settings on record: 37° C. As for the experimental part:
Following incubation, acidification and HPLC analysis on an inverse phase take place using a linear gradient elution system of 63 min of 0.1% trifluoroacetic acid and 0.05% triethyl amine in acetonitrile between 9/1 (v/v) and 5.5/4.5 (v/v), as described by Checler et al in Biochimie 70, pp.75-82, 1988.

The target in assay [12] is angiotensin conversion enzyme (Homo sapiens, UniProt P12821). Description: Effect on angiotensin conversion enzyme, substrate Hippuryl-His-Leu, HPLC (Example 14). In kind it is biochemical. The settings on record: 1 μmole/l of inhibitor, 15 min, 37° C.
angiotensin conversion enzyme, sequence (P12821 30-1306): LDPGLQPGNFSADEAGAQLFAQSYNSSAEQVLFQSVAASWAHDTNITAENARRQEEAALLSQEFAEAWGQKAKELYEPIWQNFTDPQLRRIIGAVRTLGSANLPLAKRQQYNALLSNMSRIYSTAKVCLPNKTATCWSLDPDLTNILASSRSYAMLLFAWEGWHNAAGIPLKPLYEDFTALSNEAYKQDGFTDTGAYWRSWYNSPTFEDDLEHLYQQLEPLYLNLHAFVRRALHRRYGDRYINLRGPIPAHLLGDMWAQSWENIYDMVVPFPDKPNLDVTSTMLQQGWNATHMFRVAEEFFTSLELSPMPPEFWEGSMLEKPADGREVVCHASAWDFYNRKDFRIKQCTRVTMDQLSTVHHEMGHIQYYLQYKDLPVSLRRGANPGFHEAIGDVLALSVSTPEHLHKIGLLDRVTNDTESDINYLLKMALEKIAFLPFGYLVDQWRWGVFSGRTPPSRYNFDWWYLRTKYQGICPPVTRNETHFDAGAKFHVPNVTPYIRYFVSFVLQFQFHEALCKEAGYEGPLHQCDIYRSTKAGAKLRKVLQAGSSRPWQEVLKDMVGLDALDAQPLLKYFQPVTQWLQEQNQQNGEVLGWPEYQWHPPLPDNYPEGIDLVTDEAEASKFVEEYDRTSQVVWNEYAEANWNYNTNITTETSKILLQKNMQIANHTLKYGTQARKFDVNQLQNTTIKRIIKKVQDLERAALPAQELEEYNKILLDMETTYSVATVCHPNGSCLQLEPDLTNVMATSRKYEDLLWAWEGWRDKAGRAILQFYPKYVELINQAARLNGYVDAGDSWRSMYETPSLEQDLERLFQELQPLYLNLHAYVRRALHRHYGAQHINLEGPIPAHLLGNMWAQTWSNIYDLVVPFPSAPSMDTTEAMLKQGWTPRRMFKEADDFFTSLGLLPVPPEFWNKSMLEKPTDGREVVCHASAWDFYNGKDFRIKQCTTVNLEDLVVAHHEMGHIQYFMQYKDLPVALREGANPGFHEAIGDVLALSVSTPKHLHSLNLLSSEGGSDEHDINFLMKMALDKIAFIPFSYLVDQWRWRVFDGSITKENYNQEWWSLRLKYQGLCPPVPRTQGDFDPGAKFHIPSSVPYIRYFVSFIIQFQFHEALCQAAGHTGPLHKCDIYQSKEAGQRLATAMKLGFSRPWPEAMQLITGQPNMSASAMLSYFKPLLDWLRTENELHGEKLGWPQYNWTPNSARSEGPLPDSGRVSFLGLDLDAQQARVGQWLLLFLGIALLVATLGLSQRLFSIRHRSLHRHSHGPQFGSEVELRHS

“Also recorded” adds a separate entry of the source. Read-outs that look alike come from different tables or passages of the source. Residues, ends and D or L forms follow the SMILES beside them.

T1 sequence (P24155 whole entry): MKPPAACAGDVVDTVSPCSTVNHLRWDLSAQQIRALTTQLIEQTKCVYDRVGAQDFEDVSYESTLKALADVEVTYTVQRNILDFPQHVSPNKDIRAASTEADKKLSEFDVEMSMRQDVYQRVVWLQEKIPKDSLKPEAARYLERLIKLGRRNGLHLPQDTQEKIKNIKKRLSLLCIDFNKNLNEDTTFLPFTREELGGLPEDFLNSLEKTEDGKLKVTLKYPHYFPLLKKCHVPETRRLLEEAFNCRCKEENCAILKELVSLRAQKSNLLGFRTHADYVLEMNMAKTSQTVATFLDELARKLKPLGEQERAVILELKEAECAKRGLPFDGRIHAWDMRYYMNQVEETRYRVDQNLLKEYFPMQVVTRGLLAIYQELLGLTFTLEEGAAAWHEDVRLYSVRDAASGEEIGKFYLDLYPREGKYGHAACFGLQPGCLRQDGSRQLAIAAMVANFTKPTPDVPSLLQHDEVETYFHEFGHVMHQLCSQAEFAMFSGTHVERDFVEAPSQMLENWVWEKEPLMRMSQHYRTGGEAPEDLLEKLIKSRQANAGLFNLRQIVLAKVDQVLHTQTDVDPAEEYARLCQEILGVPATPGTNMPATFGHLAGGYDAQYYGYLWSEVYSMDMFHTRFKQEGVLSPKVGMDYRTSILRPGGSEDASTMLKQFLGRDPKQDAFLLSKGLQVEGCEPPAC
endopeptidase 24.15 (Homo sapiens, UniProt P52888), sequence (P52888 whole entry, species assumed): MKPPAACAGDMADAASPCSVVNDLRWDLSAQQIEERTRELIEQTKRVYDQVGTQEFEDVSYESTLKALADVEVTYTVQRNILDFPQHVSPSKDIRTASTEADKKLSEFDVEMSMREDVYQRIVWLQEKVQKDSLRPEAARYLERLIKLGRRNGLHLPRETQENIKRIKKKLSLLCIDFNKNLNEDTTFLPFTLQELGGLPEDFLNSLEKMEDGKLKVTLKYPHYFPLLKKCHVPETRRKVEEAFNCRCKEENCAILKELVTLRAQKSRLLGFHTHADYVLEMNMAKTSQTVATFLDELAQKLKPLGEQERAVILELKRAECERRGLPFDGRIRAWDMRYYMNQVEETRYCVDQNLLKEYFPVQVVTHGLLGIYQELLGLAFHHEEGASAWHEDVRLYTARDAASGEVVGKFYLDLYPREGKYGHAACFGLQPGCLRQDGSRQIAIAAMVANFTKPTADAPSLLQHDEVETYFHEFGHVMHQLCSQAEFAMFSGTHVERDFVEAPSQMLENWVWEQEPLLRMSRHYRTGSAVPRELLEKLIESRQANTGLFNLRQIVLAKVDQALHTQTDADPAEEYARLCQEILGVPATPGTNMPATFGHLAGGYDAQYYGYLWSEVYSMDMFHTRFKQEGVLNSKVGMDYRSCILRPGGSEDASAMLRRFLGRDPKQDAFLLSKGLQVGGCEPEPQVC
endopeptidase 24.16 (Homo sapiens, UniProt Q9BYT8), sequence (Q9BYT8 38-704): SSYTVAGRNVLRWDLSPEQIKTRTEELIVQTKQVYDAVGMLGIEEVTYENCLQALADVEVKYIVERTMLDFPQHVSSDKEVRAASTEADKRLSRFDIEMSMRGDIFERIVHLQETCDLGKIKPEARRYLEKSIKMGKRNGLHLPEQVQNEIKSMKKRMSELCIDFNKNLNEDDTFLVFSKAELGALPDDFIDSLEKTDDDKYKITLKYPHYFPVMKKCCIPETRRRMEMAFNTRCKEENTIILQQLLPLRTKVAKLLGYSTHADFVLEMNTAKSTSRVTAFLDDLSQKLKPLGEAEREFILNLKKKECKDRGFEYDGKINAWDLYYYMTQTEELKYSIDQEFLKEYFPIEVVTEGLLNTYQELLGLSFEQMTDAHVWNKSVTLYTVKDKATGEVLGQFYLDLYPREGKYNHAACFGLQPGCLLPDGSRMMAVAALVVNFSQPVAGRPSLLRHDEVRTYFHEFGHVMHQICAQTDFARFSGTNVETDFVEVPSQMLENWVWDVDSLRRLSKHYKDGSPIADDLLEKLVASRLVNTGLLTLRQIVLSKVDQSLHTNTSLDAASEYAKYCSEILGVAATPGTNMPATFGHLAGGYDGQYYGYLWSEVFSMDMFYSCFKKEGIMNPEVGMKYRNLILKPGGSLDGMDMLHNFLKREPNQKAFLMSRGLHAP

Turning to `C[C@H](NC(=O)[C@H](C)NC(CCc1ccccc1)C(=O)O)C(=O)N[C@@H](Cc1ccc(O)cc1)C(=O)Nc1ccc(C(=O)O)cc1` (stereo partly drawn) [CPP-Ala-Ala-Tyr-pAB], the Ki in assay [1] (Orlowski et al, Biochemistry 27, 1988, read-out: inhibition constant, endopeptidase 24.15) was 16 nM; in [2] (Biochem. J. 280, 1991, read-out: inhibition constant, endopeptidase 24.16), 1000 nM.
`CC[C@H](C)[C@H](NC(=O)[C@@H]1CCCN1)C(=O)O` [Pro-Ile] (H-Pro-Ile-OH): in assay [1] (at a concentration as high as 5 mN), the “inhibiting action on endopeptidase 24.15” value is “no inhibiting action”. Moreover, the Ki in [2] (Eur. J. Biochem. 202, 1991b, read-out: Ki inhibition of endopeptidase 24.16) was 90000 nM.
Turning to phosphodiepryl O3, the IC50 amounted to 100 nM in assay [3] and 5 nM in assay [11]. Also, the Ki in assay [3] (read-out: inhibition constant Ki) is 7.5 nM; in assay [5] it was 0.3 nM; in assay [8] (substrate neurotensin, 37° C., pH 7.5), 0.9 nM; in assay [9] it was 0.44 nM; in [10] it was 1.6 nM; in assay [11], 5 nM. The “inhibition of endopeptidase 24.11” value in assay [4] is given as “no inhibition; also recorded: no effect”. Moreover, the “carboxypeptidase A inhibition” value in assay [6] is recorded as “no carboxypeptidase A inhibition; also recorded: no effect”. The leucine aminopeptidase inhibition entry in assay [7] is listed as “no inhibition; also recorded: no effect”. Further, the “effectiveness compared with the Ki of the known inhibitor Pro-Ile” value in [8] (Ki 0.9 nM versus Pro-Ile 90 μM) was 100,000 times. Also, the “inhibition of the angiotensin conversion enzyme” value in [12] is “no inhibition; also recorded: no effect”.

The IC50 is the concentration that inhibits the measured activity by half. A high value points to a need for much substance.
